From article PMC11587651, “Increased cytoplasmic expression of PETase enzymes in E. coli” (Microbial Cell Factories, 2024)

Target: T1, HiC (Mycothermus thermophilus, UniProt A0A075B5G4)
T1 construct: commercial enzyme Novozym 51032 (Strem), used as supplied
T1 sequence (A0A075B5G4 1-194): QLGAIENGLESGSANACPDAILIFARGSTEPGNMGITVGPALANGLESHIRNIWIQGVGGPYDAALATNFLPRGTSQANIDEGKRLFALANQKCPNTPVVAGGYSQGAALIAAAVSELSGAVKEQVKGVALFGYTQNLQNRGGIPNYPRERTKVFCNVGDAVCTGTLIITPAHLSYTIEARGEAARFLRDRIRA
Assay: HPLC of BHET to MHET conversion
Format: biochemical
Conditions: 24% acetonitrile, 76% 100 mM potassium phosphate pH 7, 40 °C, 0.1 g HiC per g BHET; product MHET

O=C(OCCO)c1ccc(C(=O)OCCO)cc1 [bis(2-hydroxyethyl) terephthalic acid]
HPLC of BHET to MHET conversion: enzymatic hydrolysis of BHET using Humicola insolens cutinase (HiC
